Laboratory results published in patent publication US20060228405A1, “Phospholipid-based pharmaceutical formulations and methods for producing and using same” (Conforma Therapeutics Corporation, priority 2005, published 2006).

Assays:
[1] = mean +/- SD; cited from earlier work
rat tail vein = test: Intravenous injection and tolerance, rat tail vein; type: in vivo; conditions: phospholipid dispersion; rats
Description: (§1) Pharmacokinetics for the solution formulation and the dispersion formulation were very similar. The method of the invention was also used to prepare dispersion formulations with the hydrochloride and phosphate salts of Compound 237. […] Dispersion formulations were also prepared using water soluble and slightly water soluble derivatives of geldanamycin. Specifically, similar dispersions containing DMAG were similarly formulated and well-tolerated upon tail vein injection into mice and rats.

tail vein = test: Intravenous injection and tolerance, tail vein injection into mice; type: in vivo; conditions: phospholipid dispersion
Description: as §1

[2] = Solvent stability of low melt form of 17-AAG slurried in H2O:EtOH (90:10); type: physicochemical; conditions: crystals slurried in H2O:EtOH (90:10)
Description: 17-AAG may be prepared from geldanamycin via reaction with allyamine in dry THF under a nitrogen atmosphere. The crude product may be purified by slurrying in H2O:EtOH (90:10), and the washed crystals obtained have a melting point of 206-212° C. by capillary melting point technique. A second product of 17-AAG can be obtained by dissolving and recrystallizing the crude product from 2-propyl alcohol (isopropanol). This second 17-AAG product has a melting point between 147-153° C. by capillary melting point technique. […] See Examples 1-2 for details of the preparation of the two polymorphic forms of 17-AAG. In addition to the high melt and low melt forms, it is well known that 17-AAG has an amorphous form.
The 17-AAG product from Example 2 was dissolved in 400 mL of H2O:EtOH (90:10) at 25° C. Filltration followed by aging at 45° C. for 8 hr gave […] (68.6 mmol) of 17-AAG as purple crystals (95% yield, >99% pure by HPLC monitored at 254 nm). m.p.=[…]. ^1H NMR and HPLC are consistent with the desired product.

C=CCNC1=C2C[C@@H](C)C[C@H](OC)[C@H](O)[C@@H](C)/C=C(\C)[C@H](OC(N)=O)[C@@H](OC)/C=C\C=C(/C)C(=O)NC(=CC1=O)C2=O [Compound 17-AAG, 17-allylamino-17-desmethyl-geldanamycin]
steady-state volume [1]: 86.6+34.6 L/m^2

CO[C@H]1/C=C\C=C(/C)C(=O)NC2=CC(=O)C(NCCN(C)C)=C(C[C@@H](C)C[C@H](OC)[C@H](O)[C@@H](C)/C=C(\C)[C@@H]1OC(N)=O)C2=O [DMAG, 17-N,N-dimethylaminoethylaminogeldanamycin]
tolerance upon tail vein injection (rat tail vein): well-tolerated
tolerance upon tail vein injection (tail vein): well-tolerated

C=CCNC1=C2C[C@@H](C)C[C@H](OC)[C@H](O)[C@@H](C)/C=C(\C)[C@H](OC(N)=O)[C@@H](OC)/C=C\C=C(/C)C(=O)NC(=CC1=O)C2=O [low melt form of 17-AAG, 17-allylamino-17-desmethyl-geldanamycin]
conversion of low melt form to high melt form [2]: no conversion to the high melt form was observed
